In one series the target is MDM2 (Homo sapiens, UniProt Q00987). Nature of the series: Biotin-oligonucleotide pull-down with recombinant proteins (MDM2). In kind it is binding. Further details: purchased R&D Systems (MDM2); ACROBiosystems (NCL) E3-202-050 (MDM2); NUL-H5253 (NCL). Particulars: 400 nM 5′-biotin label, 6 μg/mL NCL + 6 μg/mL MDM2. On the procedure:
6 μg/mL recombinant human NCL and 6 μg/mL recombinant human MDM2 were mixed well and incubated at 4° C. for 7 h. Subsequently, 400 nM CRO, AS1411, or iSN04 labeled by biotin at the 5′ end was added, and the mixture was incubated at 4° C. for 6 h. Streptavidin agarose gel beads (purchased from cytiva, Cat. No.: 17511301) were added, and the mixture was further incubated at 4° C. overnight. The gel beads were washed 4 times with a TBST buffer, and an SDS-PAGE protein loading buffer (purchased from Beyotime, Cat. No.: P0015) was added. The mixture was heated to 100° C. and held for 10 min. After centrifugation, the supernatant was collected. The pull-down product was then detected by western blot assay.

Another series addresses NCL (Homo sapiens, UniProt P19338). Nature of the series: Biotin-oligonucleotide pull-down from HeLa cell lysate, western blot (NCL). As to conditions: 5′-biotin label, 0 nM-20 μM. The series is classed as binding. Further details: HeLa cervical cancer cells were lysed with an IP lysis solution; endogenous in cells; host or cells: HeLa cell lysate. The protocol: HeLa cervical cancer cells were lysed with an IP lysis solution (purchased from Thermo Scientific, Cat. No.: 87788) and then incubated with a CRO (cytosine-rich oligonucleotide, negative control, SEQ ID NO: 13), AS1411, or iSN04 labeled by biotin at the 5′ end at different concentrations (0 nM, 200 nM, 500 nM, 1 μM, 5 μM, 10 μM, and 20 μM) at 4° C. for 6h. Subsequently, streptavidin agarose gel beads (purchased from cytiva, Cat. No.: 17511301) were added, and the mixture was further incubated at 4° C. overnight. After the bound biotin-labeled CRO, AS411, or iSN04 and its captured proteins on the gel beads were washed multiple times with an IP lysis buffer (purchased from Thermo Scientific, Cat. No.: 87788), an SDS-PAGE protein loading buffer (purchased from Beyotime, Cat. No.: P0015) was added, and the mixture was heated to 100° C. and held for 10 min. After centrifugation, the supernatant was collected as a pull-down product. The pull-down product was detected by western blot assay.
For orientation: In western blotting, separated proteins are transferred to a membrane and probed.

For series [1], the target named is T1, interaction between NCL and MDM2 (Homo sapiens, UniProt P19338).
T1 construct: HeLa cervical cancer cells were lysed with an IP lysis solution; endogenous in cells; host or cells: HeLa cell lysate
Nature of the series: Co-immunoprecipitation of NCL and MDM2 from HeLa cell lysate, western blot. The series is classed as binding. Particulars: 0-20 μM, 4° C. 6 h, IP with antibody against NCL. On the procedure: Co-immunoprecipitation (Co-IP) is a classical method for the study of protein interactions based on the specific interaction between an antibody and an antigen. It is an effective method to determine the physiological interaction between two proteins in intact cells.
HeLa cervical cancer cells were lysed with an IP lysis solution (purchased from Thermo Scientific, Cat. No.: 87788) and then incubated with AS 1411 or iSN04 at different concentrations (0 μM, 1 μM, 5 μM, 10 μM, and 20 μM) at 4° C. for 6 h. Subsequently, […] of an antibody against NCL was added, and the mixture was further incubated at 4° C. overnight. Protein A/G magnetic beads (purchased from Thermo Scientific, Cat. No.: 88802) were added, and the mixture was incubated with rotation at room temperature for 1.5 h. The bound NCL and its interacting proteins on the magnetic beads were washed with an IP lysis buffer (purchased from Thermo Scientific, Cat. No.: 87788), and an SDS-PAGE protein loading buffer (purchased from Beyotime, Cat. No.: P0015) was added. The mixture was heated to 100° C. and held for 10 min. The magnetic beads were adsorbed on a magnetic rack, and the supernatant was transferred into a new tube. Subsequently, western blot assay was performed to detect whether NCL bound to MDM2 and whether the binding was affected by AS 1411 or iSN04. […]

For a further series, the system named is HeLa cells. Nature of the series: Cell penetration and intracellular colocalization, confocal laser microscope. The series is classed as cell-based. As to conditions: 500 nM Cy5-labeled, 6 h. On the procedure:
HeLa cells were incubated with 500 nM Cy5-labeled CRO or AS1411 for 6 h. After the incubation was completed, immunofluorescence staining was performed on NCL and MDM2, and 4′,6-diamidino-2-phenylindole (DAPI) was used to stain nuclei. The cell penetration of the CRO or AS1411 and the intracellular colocalization of the CRO or AS1411 with NCL and MDM2 were observed under a confocal laser microscope.
HeLa cells were transfected with si-NC or si-NCL and subsequently incubated with 500 nM Cy5-labeled AS1411 for 6 h. After the incubation was completed, immunofluorescence staining was performed on MDM2, and DAPI was used to stain nuclei. The intracellular colocalization of AS1411 with MDM2 was observed by a confocal laser microscope.

T1 sequence (P19338 2-710 limits assumed): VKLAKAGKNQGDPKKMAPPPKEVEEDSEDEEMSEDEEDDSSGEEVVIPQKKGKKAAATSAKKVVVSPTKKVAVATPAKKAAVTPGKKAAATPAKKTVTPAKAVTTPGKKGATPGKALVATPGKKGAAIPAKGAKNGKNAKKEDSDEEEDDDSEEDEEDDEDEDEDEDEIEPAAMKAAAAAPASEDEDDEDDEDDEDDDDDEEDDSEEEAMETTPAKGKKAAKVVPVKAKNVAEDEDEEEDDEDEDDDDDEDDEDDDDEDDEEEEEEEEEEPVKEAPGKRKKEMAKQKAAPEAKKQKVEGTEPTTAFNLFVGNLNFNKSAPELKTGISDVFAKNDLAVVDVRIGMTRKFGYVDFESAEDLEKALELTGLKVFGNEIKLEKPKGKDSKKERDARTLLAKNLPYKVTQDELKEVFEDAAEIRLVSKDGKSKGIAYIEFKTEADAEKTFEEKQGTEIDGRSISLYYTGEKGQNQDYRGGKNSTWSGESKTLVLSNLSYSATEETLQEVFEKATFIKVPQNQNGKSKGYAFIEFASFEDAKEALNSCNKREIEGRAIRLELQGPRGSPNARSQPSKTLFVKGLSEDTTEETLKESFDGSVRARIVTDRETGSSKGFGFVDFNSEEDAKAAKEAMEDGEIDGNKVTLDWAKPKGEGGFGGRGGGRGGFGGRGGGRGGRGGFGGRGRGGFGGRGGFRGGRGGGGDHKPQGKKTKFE
NCL, sequence (P19338 whole entry): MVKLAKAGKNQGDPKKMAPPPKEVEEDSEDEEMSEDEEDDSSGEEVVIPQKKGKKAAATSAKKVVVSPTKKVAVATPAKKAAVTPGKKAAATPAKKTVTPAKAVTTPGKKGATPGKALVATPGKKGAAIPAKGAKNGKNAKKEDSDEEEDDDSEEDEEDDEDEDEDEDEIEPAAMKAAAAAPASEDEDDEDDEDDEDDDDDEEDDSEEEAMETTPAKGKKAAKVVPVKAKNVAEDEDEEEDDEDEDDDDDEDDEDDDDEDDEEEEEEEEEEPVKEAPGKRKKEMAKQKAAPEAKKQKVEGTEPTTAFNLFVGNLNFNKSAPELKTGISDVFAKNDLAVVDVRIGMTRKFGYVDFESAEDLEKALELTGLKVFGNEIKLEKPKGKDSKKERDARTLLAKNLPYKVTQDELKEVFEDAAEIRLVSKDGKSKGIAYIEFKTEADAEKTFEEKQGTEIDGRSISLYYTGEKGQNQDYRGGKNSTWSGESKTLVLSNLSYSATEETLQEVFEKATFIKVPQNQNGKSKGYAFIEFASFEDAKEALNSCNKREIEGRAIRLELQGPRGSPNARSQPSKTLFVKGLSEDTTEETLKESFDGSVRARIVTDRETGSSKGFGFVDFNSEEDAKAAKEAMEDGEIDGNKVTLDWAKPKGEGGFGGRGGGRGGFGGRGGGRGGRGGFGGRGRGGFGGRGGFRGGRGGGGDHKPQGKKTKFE
MDM2, sequence (P19338 whole entry partner): as the sequence (P19338 whole entry) above
MDM2, sequence (Q00987 whole entry): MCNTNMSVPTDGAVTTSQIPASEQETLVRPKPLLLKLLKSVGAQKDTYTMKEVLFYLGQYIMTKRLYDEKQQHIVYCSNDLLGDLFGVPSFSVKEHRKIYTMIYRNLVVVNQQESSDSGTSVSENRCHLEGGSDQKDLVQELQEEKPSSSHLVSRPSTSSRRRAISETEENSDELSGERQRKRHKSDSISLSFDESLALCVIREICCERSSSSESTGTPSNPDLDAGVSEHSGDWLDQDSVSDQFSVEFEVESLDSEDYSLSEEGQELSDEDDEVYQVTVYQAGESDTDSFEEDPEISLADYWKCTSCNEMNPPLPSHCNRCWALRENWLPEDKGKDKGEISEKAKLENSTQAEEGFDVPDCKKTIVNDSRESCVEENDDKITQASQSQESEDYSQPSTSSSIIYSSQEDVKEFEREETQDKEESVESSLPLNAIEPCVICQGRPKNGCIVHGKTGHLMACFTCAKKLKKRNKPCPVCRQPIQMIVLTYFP

In the case of “AS1411: DNA aptamer, GRO binding NCL, SEQ ID NO: 1: 5′-GGTGGTGGTGGTTGTGGTGGTGGTGG-3′”, the “binding / recruitment of MDM2” value with MDM2 was “recruits MDM2 in large amounts depending on its interaction with NCL”. Besides, in the series with NCL, the “capture of NCL” value was “can capture NCL and MDM2 in a concentration-dependent manner”. Besides, the “effect on the interaction between NCL and MDM2” value in series [1] is “does not affect the interaction between NCL and MDM2”. For the same substance, in the series with HeLa cells, the cell penetration entry is on record as “can penetrate HeLa cells”; the “intracellular colocalization with NCL and MDM2” value is “exhibits significant colocalization with both NCL and MDM2”. Further, in the series on HeLa cells (si-NCL), the “cell penetration when NCL is silenced” value was “silencing NCL can block AS1411 from penetrating cells”; the “intracellular colocalization with MDM2 when NCL is silenced” value was “no observed colocalization between AS1411 and MDM2”.
